Experimental findings from patent publication US10227323B2, “Glucosylceramide synthase inhibitors for the treatment of diseases” (BIOMARIN PHARMACEUTICAL INC., priority 2013, dated 2019) are described below.

The term IC50 denotes the point on the concentration scale where inhibition reaches its midpoint.

The first assay deals with T1, GCS (Canis lupus familiaris, UniProt A0A8I3MXG6).
T1 sequence (A0A8I3MXG6 1-394): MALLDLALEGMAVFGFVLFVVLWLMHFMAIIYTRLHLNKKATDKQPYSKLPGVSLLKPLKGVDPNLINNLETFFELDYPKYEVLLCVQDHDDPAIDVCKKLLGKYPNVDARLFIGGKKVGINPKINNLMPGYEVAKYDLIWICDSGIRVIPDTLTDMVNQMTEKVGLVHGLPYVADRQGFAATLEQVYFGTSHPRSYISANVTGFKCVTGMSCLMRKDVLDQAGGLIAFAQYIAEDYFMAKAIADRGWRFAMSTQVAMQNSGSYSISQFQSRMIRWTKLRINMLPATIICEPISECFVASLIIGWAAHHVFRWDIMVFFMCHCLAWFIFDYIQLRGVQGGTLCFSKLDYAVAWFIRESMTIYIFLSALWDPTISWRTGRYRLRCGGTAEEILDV
The assay is described as follows: Assay 1: GCS Enzymatic Assay (MDCK cell lysate, C6-NBD-Ceramide, LC/MS). Particulars: Table 2; data marked by *. The assay is classed as biochemical, canine. The gist of the method:
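LC/MS/MS measurement of glucosylceramide and NBD-ceramide after a 1 h, 37 °C reaction with 100 μM UDP-glucose and 10 μM C6-NBD-ceramide gave IC50s or percent inhibition.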
Consider `Cn1ncc2ccc(-c3cccc(C(=O)C(=O)N[C@H](CN4CCCC4)[C@H](O)c4ccc(OC5CC5)c(Cl)c4)c3)cc21` [Example 261, N-((1R,2R)-1-(3-chloro-4-cyclopropoxyphenyl)-1-hydroxy-3-(pyrrolidin-1-yl)propan-2-yl)-2-(3-(1-methyl-1H-indazol-6-yl)phenyl)-2-oxoacetamide], for which the “% inhibition generated from Assay 1” value is “A* (the compound had a % inhibition of a percent inhibition of greater than or equal to about 50%)”.

Turning to `O=C(N[C@H](CN1CCCC1)[C@H](O)c1ccc(OC2CC2)c(Cl)c1)C(=O)N1CCN(c2ccc(F)cc2)CC1` [Example 262, N-((1R,2R)-1-(3-chloro-4-cyclopropoxyphenyl)-1-hydroxy-3-(pyrrolidin-1-yl)propan-2-yl)-2-(4-(4-fluorophenyl)piperazin-1-yl)-2-oxoacetamide], the “% inhibition generated from Assay 1” value is given as “B* (the compound had a % inhibition of greater than or equal to about 3% but less than about 50%)”.

Consider `O=C(N[C@H](CN1CCCC1)[C@H](O)c1ccc(OC2CC2)c(C(F)(F)F)c1)C(=O)c1ccc(-c2ccc(F)cc2)cc1` [Example 265, N-((1R,2R)-1-(4-cyclopropoxy-3-(trifluoromethyl)phenyl)-1-hydroxy-3-(pyrrolidin-1-yl)propan-2-yl)-2-(4′-fluoro-[1,1′-biphenyl]-4-yl)-2-oxoacetamide], for which the “% inhibition generated from Assay 1” value was “B* (the compound had a % inhibition of greater than or equal to about 3% but less than about 50%)”.

The assay is the same for the next values; noted with them: Table 2; data without asterisk; read-out: IC50 (nM) generated from Assay 1.
On to `O=C(N[C@H](CN1CCCC1)[C@H](O)c1ccc(OC2CC2)c(Cl)c1)C(=O)c1ccc(F)cc1` [Compound 376, N-((1R,2R)-1-(3-chloro-4-cyclopropoxyphenyl)-1-hydroxy-3-(pyrrolidin-1-yl)propan-2-yl)-2-(4-fluorophenyl)-2-oxoacetamide], for which the IC50 was below 50 nM.

Take `O=C(N[C@H](CN1CCCC1)[C@H](O)c1ccc(OC2CC2)c(Cl)c1)C(=O)c1cc2ccccc2s1` [Compound 377, 2-(benzo[b]thiophen-2-yl)-N-((1R,2R)-1-(3-chloro-4-cyclopropoxyphenyl)-1-hydroxy-3-(pyrrolidin-1-yl)propan-2-yl)-2-oxoacetamide]: the IC50 is below 50 nM.

Take `C#Cc1ccc(C(=O)C(=O)N[C@H](CN2CCCC2)[C@H](O)c2ccc(OC3CC3)c(F)c2)cc1` [Compound 378, N-((1R,2R)-1-(4-cyclopropoxy-3-fluorophenyl)-1-hydroxy-3-(pyrrolidin-1-yl)propan-2-yl)-2-(4-ethynylphenyl)-2-oxoacetamide]: the IC50 is below 50 nM.

With `O=C(N[C@H](CN1CCCC1)[C@H](O)c1cc(F)c2c(c1)OCCO2)C(=O)c1ccc(F)cc1` [Compound 379, N-((1R,2R)-1-(8-fluoro-2,3-dihydrobenzo[b][1,4]dioxin-6-yl)-1-hydroxy-3-(pyrrolidin-1-yl)propan-2-yl)-2-(4-fluorophenyl)-2-oxoacetamide], the IC50 was below 50 nM.

For the compound `O=C(N[C@H](CN1CCCC1)[C@H](O)c1ccc(OC2CC2)c(Cl)c1)C(=O)C1CCN(c2ccc(F)cc2)CC1` [Compound 380, N-((1R,2R)-1-(3-chloro-4-cyclopropoxyphenyl)-1-hydroxy-3-(pyrrolidin-1-yl)propan-2-yl)-2-(1-(4-fluorophenyl)piperidin-4-yl)-2-oxoacetamide], the IC50 was 50 to 5000 nM.

For `O=C(N[C@H](CN1CCC1)[C@H](O)c1ccc(OC2CC2)c(F)c1)C(=O)c1cc2ccc(Cl)cc2s1` [Compound 381, N-((1R,2R)-3-(azetidin-1-yl)-1-(4-cyclopropoxy-3-fluorophenyl)-1-hydroxypropan-2-yl)-2-(6-chlorobenzo[b]thiophen-2-yl)-2-oxoacetamide], the IC50 is below 50 nM.

Consider `CN(C(=O)C(=O)c1ccc(-c2ccc(F)cc2)cc1)[C@H](CN1CCCC1)[C@H](O)c1ccc(OC2CC2)c(F)c1` [Compound 382, N-((1R,2R)-1-(4-cyclopropoxy-3-fluorophenyl)-1-hydroxy-3-(pyrrolidin-1-yl)propan-2-yl)-2-(4′-fluoro-[1,1′-biphenyl]-4-yl)-N-methyl-2-oxoacetamide], for which the IC50 was below 50 nM.

In the case of `CN(C(=O)C(=O)c1cc2ccc(Cl)cc2s1)[C@H](CN1CCCC1)[C@H](O)c1ccc(OC2CC2)c(F)c1` [Compound 383, 2-(6-chlorobenzo[b]thiophen-2-yl)-N-((1R,2R)-1-(4-cyclopropoxy-3-fluorophenyl)-1-hydroxy-3-(pyrrolidin-1-yl)propan-2-yl)-N-methyl-2-oxoacetamide], the IC50 is below 50 nM.

In the case of `CC(C)n1ncc2cc(-c3ccc(C(=O)C(=O)N[C@H](CN4CCCC4)[C@H](O)c4ccc(OC5CC5)c(Cl)c4)cc3)ccc21` [Example 258, N-((1R,2R)-1-(3-chloro-4-cyclopropoxyphenyl)-1-hydroxy-3-(pyrrolidin-1-yl)propan-2-yl)-2-(4-(1-isopropyl-1H-indazol-5-yl)phenyl)-2-oxoacetamide], the 50% inhibitory concentration (IC50) is below 50 nM.

For `CC(C)n1cc2cc(-c3ccc(C(=O)C(=O)N[C@H](CN4CCCC4)[C@H](O)c4ccc(OC5CC5)c(Cl)c4)cc3)ccc2n1` [Example 259, N-((1R,2R)-1-(3-chloro-4-cyclopropoxyphenyl)-1-hydroxy-3-(pyrrolidin-1-yl)propan-2-yl)-2-(4-(2-isopropyl-2H-indazol-5-yl)phenyl)-2-oxoacetamide], the IC50 was below 50 nM.

Regarding `O=C(N[C@H](CN1CCCC1)[C@H](O)c1ccc(OC2CC2)c(Cl)c1)C(=O)c1ccc(-c2ccc3sc(Cl)cc3c2)cc1` [Example 263, N-((1R,2R)-1-(3-chloro-4-cyclopropoxyphenyl)-1-hydroxy-3-(pyrrolidin-1-yl)propan-2-yl)-2-(4-(2-chlorobenzo[b]thiophen-5-yl)phenyl)-2-oxoacetamide], the IC50 was below 50 nM.

On to `O=C(N[C@H](CN1CCCC1)[C@H](O)c1ccc(OC2CC2)c(Cl)c1)C(=O)c1ccc(-c2ccc(F)cc2)cn1` [Example 264, N-((1R,2R)-1-(3-chloro-4-cyclopropoxyphenyl)-1-hydroxy-3-(pyrrolidin-1-yl)propan-2-yl)-2-(5-(4-fluorophenyl)pyridin-2-yl)-2-oxoacetamide], for which the IC50 was below 50 nM.

Take `CC(C)n1ccc2cc(-c3ccc(C(=O)C(=O)N[C@H](CN4CCCC4)[C@H](O)c4ccc(OC5CC5)c(Cl)c4)cc3)ccc21` [Example 266, N-((1R,2R)-1-(3-chloro-4-cyclopropoxyphenyl)-1-hydroxy-3-(pyrrolidin-1-yl)propan-2-yl)-2-(4-(1-isopropyl-1H-indo1-5-yl)phenyl)-2-oxoacetamide]: the IC50 is below 50 nM.

Take `O=C(N[C@H](CN1CCCC1)[C@H](O)c1ccc2c(c1)OCCO2)C(=O)c1ccc(-c2ccc(Cl)cc2)cc1` [Example 267, 2-(4′-chloro-[1,1′-biphenyl]-4-yl)-N-((1R,2R)-1-(2,3-dihydrobenzo[b][1,4]dioxin-6-yl)-1-hydroxy-3-(pyrrolidin-1-yl)propan-2-yl)-2-oxoacetamide]: the 50% inhibitory concentration (IC50) is below 50 nM.

With `O=C(N[C@H](CN1CCCC1)[C@H](O)c1ccc2c(c1F)OCCO2)C(=O)c1ccc(-c2ccc(F)cc2)cc1` [Example 268, N-((1R,2R)-1-(5-fluoro-2,3-dihydrobenzo[b][1,4]dioxin-6-yl)-1-hydroxy-3-(pyrrolidin-1-yl)propan-2-yl)-2-(4′-fluoro-[1,1′-biphenyl]-4-yl)-2-oxoacetamide], the IC50 was below 50 nM.

Consider `CC(C)n1ccc2cc(-c3ccc(C(=O)C(=O)N[C@H](CN4CCCC4)[C@H](O)c4cc(F)c5c(c4)OCCO5)cc3)ccc21` [Example 269, N-((1R,2R)-1-(8-fluoro-2,3-dihydrobenzo[b][1,4]dioxin-6-yl)-1-hydroxy-3-(pyrrolidin-1-yl)propan-2-yl)-2-(4-(1-isopropyl-1H-indol-5-yl)phenyl)-2-oxoacetamide], for which the IC50 was below 50 nM.

With `O=C(N[C@H](CN1CCCC1)[C@H](O)c1ccc(OC2CC2)c(Cl)c1)C(=O)c1ccc(-c2ccc(Cl)cc2)cc1` [Example 270, N-((1R,2R)-1-(3-chloro-4-cyclopropoxyphenyl)-1-hydroxy-3-(pyrrolidin-1-yl)propan-2-yl)-2-(4′-chloro-[1,1′-biphenyl]-4-yl)-2-oxoacetamide], the IC50 was below 50 nM.

On to `CC(C)n1cnc2cc(-c3ccc(C(=O)C(=O)N[C@H](CN4CCCC4)[C@H](O)c4ccc(OC5CC5)c(Cl)c4)cc3)ccc21` [Example 271, N-((1R,2R)-1-(3-chloro-4-cyclopropoxyphenyl)-1-hydroxy-3-(pyrrolidin-1-yl)propan-2-yl)-2-(4-(1-isopropyl-1H-benzo[d]imidazol-5-yl)phenyl)-2-oxoacetamide], for which the IC50 was below 50 nM.

On to `O=C(N[C@H](CN1CCCC1)[C@H](O)c1cc(F)c2c(c1)OCCO2)C(=O)c1ccc(-c2ccc(Cl)cc2)cc1` [Example 272, 2-(4′-chloro-[1,1′-biphenyl]-4-yl)-N-((1R,2R)-1-(8-fluoro-2,3-dihydrobenzo[b][1,4]dioxin-6-yl)-1-hydroxy-3-(pyrrolidin-1-yl)propan-2-yl)-2-oxoacetamide], for which the IC50 was below 50 nM.

Consider `O=C(N[C@H](CN1CCCC1)[C@H](O)c1cc(F)c2c(c1)OCCO2)C(=O)c1ccc(N2CCCC2)cc1` [Example 273, N-((1R,2R)-1-(8-fluoro-2,3-dihydrobenzo[b][1,4]dioxin-6-yl)-1-hydroxy-3-(pyrrolidin-1-yl)propan-2-yl)-2-oxo-2-(4-(pyrrolidin-1-yl)phenyl)acetamide], for which the IC50 was below 50 nM.
